Source: patent publication US20050221381A1, “Method for isolating ligands” (priority 2002, published 2005)
Like-named read-outs stand apart in the source and are kept apart here.

How the values were obtained:
[1] = molecular target: T1, soluble DRB1*0401 molecules (DR4) (Homo sapiens, UniProt P01903+P01911, A100K/A169T/F76Y/I96L/K127E/L162R/M171V/N62H/P40V/Q125Y/R42H/S133A/S149N/S66Y/V115G/V209L/W38E); format: binding; design: key to Binding to DRB1 *0401: −: no binding/T cell response; +/−: weak binding/T cell response; +: intermediate binding/T cell response; ++: strong binding/T cell response
T1 construct: Soluble HLA class I A*0201 and HLA class II DRA1*0101/DRB1*0101/Ii, DRA1*0101/DRB1*0401/Ii and DRA1*0101/DRB1*0404/Ii molecules were expressed in SC-2 cells; made in house; host or cells: SC-2 cells

[2] = test system: HLA-DRB1*0401-transgenic mice splenocytes; format: in vivo, mouse; design: key to DRB1*0401 mice total SC (T cell response) / DRB1*0401 mice CD4+ (T cell response): −: no binding/T cell response; +/−: weak binding/T cell response; +: intermediate binding/T cell response; ++: strong binding/T cell response
[3] = molecular target: T2, soluble DRB1*0101 molecules (Homo sapiens, UniProt P01903+P01911, A100R/D57E/F55L/F60I/F76Y/I96L/L162R/M171V/P40L/Q125E/R42F/V115G/Y59C); test: Peptide binding assay, SDS-stability assay; design: key: −: no binding/T cell response; +/−: weak binding/T cell response; +: intermediate binding/T cell response; ++: strong binding/T cell response
T2 construct: Soluble HLA class I A*0201 and HLA class II DRA1*0101/DRB1*0101/Ii, DRA1*0101/DRB1*0401/Ii and DRA1*0101/DRB1*0404/Ii molecules were expressed in SC-2 cells; made in house; host or cells: SC-2 cells

[4] = molecular target: T3, soluble DRB1*0404 molecules (Homo sapiens, UniProt P01903+P01911, A100R/A169T/F76Y/I96L/K127E/L162R/M171V/N62H/P40V/Q125Y/R42H/S133A/S149N/S66Y/V209L/W38E); test: Peptide binding assay, SDS-stability assay; design: key: −: no binding/T cell response; +/−: weak binding/T cell response; +: intermediate binding/T cell response; ++: strong binding/T cell response
T3 construct: Soluble HLA class I A*0201 and HLA class II DRA1*0101/DRB1*0101/Ii, DRA1*0101/DRB1*0401/Ii and DRA1*0101/DRB1*0404/Ii molecules were expressed in SC-2 cells; made in house; host or cells: SC-2 cells

[5] = molecular target: T1, soluble DRB1*0401 molecules (DR4); format: binding; design: key: −: no binding/T cell response; +/−: weak binding/T cell response; +: intermediate binding/T cell response; ++: strong binding/T cell response
DRB1*0701 = DRB1*0701 (Homo sapiens, UniProt P01903+P01911, A100R/A102G/A103Q/D57E/D86V/E43K/F76Y/K127E/L162R/M171V/P40G/Q125H/Q99D/R33Q/R42Y/R54Q/S133A/S66F/T210M/V115G/Y107V/Y59L/Y89S); test: Peptide-competition assay with biotinylated CLIP peptide (ELISA); format: binding; design: key: −: no binding/T cell response; +/−: weak binding/T cell response; +: intermediate binding/T cell response; ++: strong binding/T cell response
Method: (§1) The binding affinities to DRB1*0701 and DRB1*1101 were tested by a peptide-competition assay (Reay et al., 1992). Briefly, binding of the biotinylated CLIP peptide (reference peptide) has been used for monitoring of HLA:peptide complex formation. […] In the case of lower affinity peptides they should be added in excess to the reference peptide to compete for occupancy of HLA binding grove. […] Alternatively, comparing of the amount of reference peptide bound to HLA molecules in the presence or absence of competitor peptide one can determine the binding activity of the peptide of interest.
(§2) In the present peptide-competition assay conditions of peptide binding were similar to described above. Soluble HLA molecules were used in the concentration of 0.5 μM and biotinylated CLIP was added to all samples in the final concentration of 2 μM. Competitor peptides were added in three different concentrations: 0.25, 5 and 100 μM. Binding reaction was performed in PBS buffer (pH 7.4) for 18 hours at 37° C. […] Briefly, MaxiSorb 96-well plates (Nunc, Denmark) were coated with mouse anti-αβ antibody L243 (purified from ATCC HB-55) by overnight incubation with 50 μl of 10 μg/ml dilution in PBS at 4° C. Non-specific binding to the plastic was blocked by incubation with T-PBS containing 3% of BSA for 2 hours at 37° C. and binding reactions were then “captured” for 2 hours at room temperature. […] The optical density at 405 nm was measured on a microplate reader SUNRISE (Tecan).

DRB1*1101 = DRB1*1101 (Homo sapiens, UniProt P01903+P01911, A100R/A169T/A87E/I96F/K41T/L162R/M171V/P40S/Q125H/Q178H/Q39Y/Q99D/R42S/S66Y/T262R/V115G/W38E); test: as above; format: binding; design: key: −: no binding/T cell response; +/−: weak binding/T cell response; +: intermediate binding/T cell response; ++: strong binding/T cell response; conditions: for Binding to DRB1*1101: longer peptides no. 1500-1505, peptide-competition assay
Method: as §1, §2

[6] = molecular target: T1, soluble DRB1*0401 molecules (DR4); format: binding; design: key: +++: high binding affinity; ++: moderate binding affinity; +: low binding affinity; −: no binding; conditions: individual pp65 15mer, SDS-stability assay
[7] = molecular target: T3, soluble DRB1*0404 molecules; test: Peptide binding assay, SDS-stability assay; design: key: −: no binding; +/−: weak binding; +: intermediate binding; ++: strong binding; conditions: individual pp65 15mer
[8] = molecular target: T1, soluble DRB1*0401 molecules (DR4); format: binding; design: key: −: no binding; +/−: weak binding; +: intermediate binding; ++: strong binding; conditions: individual pp65 15mer, SDS-stability assay
[9] = test system: DRB1*0401, DRB1*0101, DRB1*0404, DRB1*0701 and DRB1*1101; test: Binding to soluble HLA molecules of different allels (promiscuity); design: species or system human
Method: In peptide binding reactions HLA molecules were used in a concentration of 0.5 μM, and each single peptide was added in 10-fold molar excess (5 μM) if not mentioned differently. […] The reaction was performed in PBS buffer (pH 7.4) at room temperature for 48 hours in the presence of a protease inhibitor cocktail (Roche) and 0.1% octyl-b-D-glucopyranoside (Sigma).
Peptide binding was evaluated in an SDS-stability assay (Gorga et al., 1987): trimeric HLA class II ab-peptide complexes are resistant to SDS and consequently appear as ˜60 kDa band in SDS-PAGE Western blot analysis. Individual HLA class II α and β chains not stabilized by a peptide binding with intermediate to high affinity migrate as ˜35 kDa and ˜30 kDa bands, respectively.
as §1, §2
Some of the identified DRB1*0401 binding peptides, as well as others chosen by prediction algorithms were also tested for binding to soluble HLA molecules of different allels: DRB1*0101, DRB1*0404, DRB1*0701 and DRB1*1101 (Table 3).

[10] = longer peptides no. 1500-1505, peptide-competition assay
[11] = CD4+ fraction of splenocytes, IFN-γ ELISpot
[12] = IFN-gamma ELISpot, enriched CD4+ fraction of splenocytes of HLA-DR4 transgenic mice vaccinated with the longer peptide, ex vivo re-stimulation
[13] = IFN-gamma ELISpot, total splenocytes of HLA-DR4 transgenic mice vaccinated with the longer peptide, ex vivo re-stimulation
[14] = total splenocytes, ex vivo restimulation, IFN-γ ELISpot

Row | Sequence | Binding to DRB1*0101 ([3]; longer peptides no. 1500-1505) | Binding to DRB1*0101 ([3]; soluble DRB1*0101 molecules) | Binding to DRB1*0404 ([4]; longer peptides no. 1500-1505) | Binding to DRB1*0404 ([4]; soluble DRB1*0404 molecules) | Binding to DRB1 *0701 (DRB1*0701; DRB1*0701) | Binding to DRB1 *0701 (DRB1*0701; [10]) | Binding to DRB1 1101 (DRB1*1101) | Binding to DRB1*1101 (DRB1*1101) | Binding to DRB1 *0401 ([1]; soluble DRB1*0401 molecules) | DRB1*0401 mice CD4+ (T cell response) [2, 11] | DRB1*0401 mice CD4+ (T cell response) [2, 12] | DRB1*0401 mice total SC (T cell response) [2, 13] | DRB1*0401 mice total SC (T cell response) [2, 14] | Binding to DRB1*0401 ([5]; longer peptides no. 1500-1505) | other results
1 | LLQRGPQYSEHPTFTSQYRIQG [Peptide 1502] | − | − | − | − | − | − | ++ | ++ |  |  |  |  |  |  | Binding to DRB1 *0401 [1]: +; CD4+ / CD8+ response of separated splenocytes ([2]; mouse, in vivo): simultaneous CD4+ and CD8+ response; DRB1*0401 mice CD4+ (T cell response) ([2]; mouse, in vivo): ++; DRB1*0401 mice total SC (T cell response) ([2]; mouse, in vivo, sc): + and ++; Binding to DRB1*0401 [5]: +
2 | PSLILVSQYTPDSTPCHRGDNQLQVQHTR [Peptide 1500] | + | + | ++ | ++ | − | − | − | − | ++ | + | + | + | + | ++ | 
3 | QGQNLKYQEFFWDANDIYRIF [Peptide 1505] | − | − | − | − | − | − | − | − | + | ++ | ++ | ++ | ++ | +/− | Binding to soluble DRB1*0401 molecules (in words) ([1]; SDS-stability assay): not so good in binding assay; Immunogenicity in DRB1*0401-transgenic mice (in words) ([2]; total splenocytes, INF-gamma ELISpot (FIG. 12)): highest frequency of T cells
4 | QWKEPDVYYTSAFVFPTKDVALR [Peptide 1501] | ++ | ++ | − | − | − | − | + | +/− | + | + | + | + | + | + | 
5 | RNLVPMVATVQGQNL [Peptide 494] |  |  |  |  |  |  |  |  |  |  |  |  |  |  | Binding to DRB1*0401 [6]: −; Binding to DRB1*0404 [7]: ++
6 | TRGRLKAESTVAPEE [Peptide 452] |  | ++ |  | ++ | − |  | − |  | + |  | ++ | + |  |  | Binding to DRB1*0401 [8]: +; Binding to DRB1*0404 [7]: +; Affinity for several HLA molecules (promiscuity) [9]: affinity for at least two HLA molecules
7 | TSGVMTRGRLKAESTVAPEEDTDE [Peptide 1504] | + | + |  | ++ | − | − | + | + | + | ++ | ++ | + | + | + | 
